Laboratory results published in US10344330B2, “Glatiramer acetate response biomarker mRNA potency assay” (Mylan Inc., priority 2013, dated 2019).
Where “and” joins values, the source holds several entries; their conditions need not be identical. Equal entries are not always repeated.

Experiments:
[1] = tested on: IL-10 secreted by LN cells; test: IL-10 secretion by GA-stimulated LN cells, MSD 9-plex ELISA (Example II); format: cell-based, mouse; settings: for IL-10 secretion response ratio (treated cell medium to control DCCM1 medium): 21 hr
Protocol: Animals at 8 weeks of age were immunized by injection into four footpads using a 1 mL syringe with a 27-G, 1⁄2-inch needle. […] Ten days post-immunization, immunized animals were sacrificed via cervical dislocation. […] The LN cells were isolated by pressing the LN with the plunger end of a sterile syringe. […] Trypan blue exclusion method was used to determine the cell density of viable cells in the suspension. […] Cat. […] LN cells were plated into a 24-well tissue culture plate for drug stimulation. […] Cell debris was removed by centrifugation at ca. 200×g for 10 minutes at 4° C. Cytokines secreted by treated cells were determined on the day of collection by ELISA using mouse TH 1/TH 2 9-Plex Tissue Culture Kit (Meso Scale Discovery; Cat No. […]-2, Lot #: K0032839) which detects Th1 cytokines (IFN-γ, IL-2, IL-12, IL-1β, TNF-α, CXCL1) and Th2 cytokines (IL-4, IL-5 and IL-10). For IFN-γ, culture media also were assayed at 45 hours using mouse IFN-γ Tissue Culture Kit (Meso Scale Discovery; Cat No. […] For the positive control, 0.5 mL of LN cells (5×10^6 cells/well) were treated with 0.5 mL of ConA (5 μg/mL). For the negative control, 0.5 mL of LN cells (5×10^6 cells/well) were treated with 0.5 mL of MBP (20 μg/mL). The LN cells with mock stimulation (enriched DCCM1 medium) were used to monitor the background level of a cytokine. For the cytokine assays, calibration standards or samples were incubated in the MULTI-SPOT or the SINGLE-SPOT plate and each cytokine bound to its corresponding capture antibody. All test samples were run in duplicate. The amount of each cytokine on its distinct spot was quantified using a cytokine-specific detection antibody labeled with MSD SULFO-TAGTM reagent. Electrochemiluminescent signals from immobilized SULFO-TAGTM-labeled complexes on each spot from each well were captured by the MSD SECTOR Imager 6000, which produces a signal directly proportional to the amount of captured cytokine in a test sample. The levels of cytokines in test samples were derived by interpolation from calibration curves with calibration standards of known concentrations using reagents provided with the MSD kits. Kits were used according to the manufacturer's protocols. […] Data are expressed as a response ratio of cytokine concentration in treated cell medium to control DCCM1 medium.

[2] = tested on: mIL-2 mRNA in primary LN cells; test: mIL-2 mRNA by real-time PCR in ex vivo stimulated LN cells of immunized (SJL/J×BALB/C)F1 mice (Example I); format: cell-based, mouse
Protocol: For each of the three experiments summarized in Table 1, female (SJL/J×BALB/C) F1 hybrid (Jackson Laboratory) mice were immunized by footpad injection with either 250 μg GMA (Mylan Pharmaceuticals, Inc.) and CFA (Sigma Aldrich), or Mannitol and CFA (as a negative control). The GA solution was diluted to 5 mg/mL with Dulbecco's Phosphate-buffered saline. A dose solution was then prepared by mixing the diluted GA solution (5 mg/mL) and CFA (1:1) until well-emulsified. Each mouse received a total injection volume of 0.1 mL (250 μg GA). Animals were immunized on Day 0. Immunized animals were sacrificed via cervical dislocation on Day 10 following immunization. Lymph nodes in the axillary and popliteal regions were removed aseptically in a purifier clean bench, and transferred into a sterile petri dish containing about 5 mL of sterile RPMI 1640 medium. The LN were washed 3 times with −5 mL of RPMI medium, and the LN cells isolated by pressing the LN with a syringe plunger. The cell suspension was transferred to a sterile 50 mL conical tube, washed in about 40 mL of RPMI medium by centrifuging at about 200×g for 10 minutes at about 4° C., and re-suspended in RPMI 1640 medium for cell counting. The cell suspension was centrifuged at about 200×g for 10 minutes at about 4° C. and re-suspended in ice cold enriched DCCM-1 medium. The LN cells (2.5×10^6 cells/cm^2) were plated in the wells of a 48-well tissue culture plate and stimulated with GA or controls.
After incubation at about 37° C. in a humidified CO2 incubator for the indicated time, total RNA was isolated from the treated cells using the RNeasy Mini Kit (Qiagen, Cat. #74104). Cells were lysed in RNA lysis buffer, transferred to Qiagen spin columns, washed, and the RNA eluted with DEPC-treated water from the column. cDNA was synthesized from each RNA sample using the High Capacity cDNA Reverse Transcription Kit (Applied Biosystems, Cat. #4368814). The PCR reactions were carried out using TaqMan Universal PCR Master Mix (Applied Biosystems, Cat. #4304437) and specific primers/probe for the target cytokine and reference internal controls. Primers/probes for mouse cytokines IL-2 (Cat. #4331182; ID Mm00434256_m1), IL-4 (Cat. #4331182; ID Mm00445259_m1), IL-5 (Cat. #4331182; ID Mm00439646_m1), IFN-γ (Cat. #4331182; ID Mm01168134_m1), IL-10 (ID Mm00439614_m1), and TNF-α (Mm00443260_g1) were obtained from Life Technologies. Expression of cytokine mRNA was quantitatively analyzed using a Real-Time PCR system (7500, Applied Biosystems).
(DCCM1 from Beit Haemek Ltd.; Cat. No. 05 010 1A). There was no MBP treatment for the 2-hour groups. (MBP from Bachem; Cat No. H-1964.0001) For each evaluation time DCCM1 was studied and compared, i.e. 2 hours represents 2 hours with DCCM1, 4 hours=4 hours, etc., and served as representative control for each timepoint.
For Experiment 3, a 96-well plate format was used, and RNA isolation was carried out using an SV 96 Total RNA Isolation System (Promega). Immunization of Groups 3A and 4A are described in Table 1. […] Y-axis: linear mRNA fold-changes of mIL-2. X-axis: log Cop and GA (Mylan GMA) concentration values. The best fit for the data set was performed using the logarithmic model.
Group 1B animals were female (SJL/J×BALB/C) F1 hybrid (Jackson Laboratory) mice immunized by footpad injection with either 250 μg GA and CFA, or Mannitol and CFA (as a negative control). A dose solution was prepared by mixing a diluted GA solution (5 mg/mL) and CFA (1:1).

[3] = Experiment 1, GA-immunized (SJL/J×BALB/C)F1, 2 hour post stimulation, GA 10, ConA 2.5 μg/mL
[4] = Experiment 1, GA-immunized (SJL/J×BALB/C)F1, 4 hour post stimulation, GA 10, MBP 10, ConA 2.5 μg/mL
[5] = Experiment 1, GA-immunized (SJL/J×BALB/C)F1, 6 hour post stimulation, GA 10, MBP 10, ConA 2.5 μg/mL
[6] = Experiment 1, GA-immunized (SJL/J×BALB/C)F1, 24 hour post stimulation, GA 10, MBP 10, ConA 2.5 μg/mL
[7] = Experiment 3, Group 3A (GA + CFA), stimulation 2.5 μg/mL, 6 hours
[8] = Group 1B (GA + CFA), 4 hours post-stimulation, GA 10, MBP 10, ConA 2.5 μg/mL, reference 18S rRNA
[9] = Group 1B (GA + CFA), 6 hours post-stimulation, GA 10, MBP 10, ConA 2.5 μg/mL, reference 18S rRNA
[10] = Group 2B (Mannitol + CFA), 4 hours post-stimulation, GA 10, MBP 10, ConA 2.5 μg/mL, reference 18S rRNA
[11] = Group 2B (Mannitol + CFA), 6 hours post-stimulation, GA 10, MBP 10, ConA 2.5 μg/mL, reference 18S rRNA

## Concanavalin A [ConA, reference compound]
[1]; BALB/cByJ, immunized GA Intraplantar
  IL-10 secretion response ratio (treated cell medium to control DCCM1 medium): 23.65
[1]; BALB/cByJ, immunized GA Lower Limb
  IL-10 secretion response ratio (treated cell medium to control DCCM1 medium): 18.32
[1]; BALB/cByJ, immunized Mannitol Intraplantar
  IL-10 secretion response ratio (treated cell medium to control DCCM1 medium): 21.86
[1]; C57BL10J, immunized GA Intraplantar
  IL-10 secretion response ratio (treated cell medium to control DCCM1 medium): 1.62
[1]; C57BL10J, immunized GA Lower Limb
  IL-10 secretion response ratio (treated cell medium to control DCCM1 medium): 1.50
[1]; C57BL10J, immunized Mannitol Intraplantar
  IL-10 secretion response ratio (treated cell medium to control DCCM1 medium): 1.04
[1]; CD-1, immunized GA Intraplantar
  IL-10 secretion response ratio (treated cell medium to control DCCM1 medium): 13.70
[1]; CD-1, immunized GA Lower Limb
  IL-10 secretion response ratio (treated cell medium to control DCCM1 medium): 8.64
[1]; CD-1, immunized Mannitol Intraplantar
  IL-10 secretion response ratio (treated cell medium to control DCCM1 medium): 10.96
[2]; [3]
  mIL-2 mRNA Level: 183.4 fold change vs control
[2]; [4]
  mIL-2 mRNA Level: 131.5 fold change vs control
[2]; [5]
  mIL-2 mRNA Level: 105.0 fold change vs control
[2]; [6]
  mIL-2 mRNA Level: 16.2 fold change vs control
[2]; [7]
  mIL-2 mRNA Level: 111.0 fold change vs control
[2]; Experiment 3, Group 4A controls, *Animals not immunized, MBP 10, ConA 2.5 μg/mL, 6 hours
  mIL-2 mRNA Level: 91.4 fold change vs control
[2]; [8]
  mIL-2 mRNA Level: 256.3 fold change vs control
[2]; [9]
  mIL-2 mRNA Level: 54.3 fold change vs control
[2]; [10]
  mIL-2 mRNA Level: 517.9 fold change vs control
[2]; [11]
  mIL-2 mRNA Level: 277.9 fold change vs control

## L-glutamic acid polymer with L-alanine, L-lysine and L-tyrosine, acetate (salt) [GA]
[1]; BALB/cByJ cells and CD1 cells
  IL-10 secretion, dose response to GA (in words): dose-dependent manner
[2]; [3]
  mIL-2 mRNA Level: 5.3 fold change vs control
[2]; [4]
  mIL-2 mRNA Level: 12.2 fold change vs control
[2]; [5]
  mIL-2 mRNA Level: 20.8 fold change vs control
[2]; [6]
  mIL-2 mRNA Level: 3.6 fold change vs control
[2]; Experiment 3, Group 3A (GA + CFA), stimulation 1 μg/mL, 6 hours
  mIL-2 mRNA Level: 9.7 fold change vs control
[2]; [7]
  mIL-2 mRNA Level: 20.2 fold change vs control
[2]; Experiment 3, Group 3A (GA + CFA), stimulation 5 μg/mL, 6 hours
  mIL-2 mRNA Level: 22.6 fold change vs control
[2]; Experiment 3, Group 3A (GA + CFA), stimulation 10 μg/mL, 6 hours
  mIL-2 mRNA Level: 26.1 fold change vs control
[2]; Experiment 3, Group 3A (GA + CFA), stimulation 15 μg/mL, 6 hours
  mIL-2 mRNA Level: 27.3 fold change vs control
[2]; Experiment 3, Group 3A (GA + CFA), stimulation 25 μg/mL, 6 hours
  mIL-2 mRNA Level: 34.7 fold change vs control
[2]; Experiment 3, Group 4A (Mannitol + CFA), stimulation 5 μg/mL, 6 hours
  mIL-2 mRNA Level: 3.0 fold change vs control
[2]; Experiment 3, Group 4A (Mannitol + CFA), stimulation 10 μg/mL, 6 hours
  mIL-2 mRNA Level: 1.6 fold change vs control
[2]; Experiment 3, Group 4A (Mannitol + CFA), stimulation 25 μg/mL, 6 hours
  mIL-2 mRNA Level: 1.7 fold change vs control and 1.5 fold change vs control
[2]; [8]
  mIL-2 mRNA Level: 16.7 fold change vs control
[2]; [9]
  mIL-2 mRNA Level: 10.2 fold change vs control
[2]; Group 1B, 4 and 6 hours (text summary of Table 8)
  mIL-2 mRNA level increase vs DCCM-1-stimulated control: at least 10 fold
[2]; [10]
  mIL-2 mRNA Level: 1.8 fold change vs control
[2]; [11]
  mIL-2 mRNA Level: 1.4 fold change vs control
